System: NKT cells
Assay: In vivo cytokine assay (serum IL-2, IFN-γ, IL-4 after intraperitoneal injection)
Parameters: species or system mice
Conditions: 1 μg per mouse intraperitoneally
Description: To investigate the relevance of structural variation to immunomodulatory function, an in vitro panel screening assay of synthetic BfaGCs was carried out in a co-culture system with bone marrow-derived dendritic cells (BMDCs) and NKT cells. Levels of interleukin 2 (IL-2) production in the presence of individual BfaGCs clearly distinguished two groups with different levels of NKT cell recognition: strong and weak stimulators (FIG. 3A). Strikingly, all 10 strong stimulators have branched (either ω-2 or ω-3) sphinganine chains, whereas none of 11 weak stimulators have such branching. […] These molecules were individually injected into mice (1 μg per mouse, intraperitoneally), and systemic levels of cytokines were quantified and directly compared to those in mice injected with KRN7000 (a prototypic Th1 agonist) and mice injected with OCH (a Th2 agonist). Serum IL-2 levels 2 h after injection show trends consistent with in vitro results (KRN7000>SB2217>SB2219), which implies that BfaGCs are also functioning in vivo (FIG. 3B). […] Although It is well established that aGCs with very long fatty acyl chains (e.g., KRN7000, which has a C26 saturated chain) selectively induce Th1-type cytokines and that shorter-sphingoid-chain aGCs (e.g., OCH, which has a C8 saturated chain) skew toward Th2, aGCs with acyl and sphingoid chain lengths of long-chain fatty acids (C15-C19), prominently identified in B. fragilis, are less well investigated (21).
Mice (n=4 per group) were given 100 uL of KRN7000, OCH, SB2217 or SB2219 solution (1 ug, 0.9% DMSO in PBS) intraperitoneally. Animals were bled at 2 hours after injection from tail vein (˜100 uL per animal). At 18 hours after injection, animals were euthanized and second 100 uL blood was drawn by cardiac puncture. Fresh blood was collected to Z-Gel tubes (Sarstedt) to form blood clot and spun at 10,000×g for 5 minutes for serum separation. Samples were frozen at −80 degree until analysis by multiplex ELISA (Eve Technologies, Calgary, Canada).

[1] = serum at observed time points (2 and 18 hours)

Row | Structure (SMILES) | serum IL-2 level (2 h after injection) | Th1 cytokine (IFN-γ) induction in vivo [1] | Th2 cytokine (IL-4) induction in vivo [1]
1 | CCCCCCCCCCCCCCCCCCCCCCCCCC(=O)N[C@@H](CO[C@H]1O[C@H](CO)[C@H](O)[C@H](O)[C@H]1O)[C@H](O)[C@H](O)CCCCCCCCCCCCCC [KRN7000] | KRN7000>SB2217>SB2219 | stimulates IFN-gamma | 
2 | CCCCCCCCCCCCCCCCCCCCCCCC(=O)N[C@@H](CO[C@H]1O[C@H](CO)[C@H](O)[C@H](O)[C@H]1O)[C@H](O)[C@H](O)CCCCC [OCH] |  |  | stimulates IL-4
